Measured values as given in PMC6017115, “Inhibitory Effect of Sauchinone on UDP-Glucuronosyltransferase (UGT) 2B7 Activity” (Molecules : A Journal of Synthetic Chemistry and Natural …, 2018).

Biological target: T1, UGT2B7 (Homo sapiens, UniProt P16662)
T1 sequence (P16662 24-529): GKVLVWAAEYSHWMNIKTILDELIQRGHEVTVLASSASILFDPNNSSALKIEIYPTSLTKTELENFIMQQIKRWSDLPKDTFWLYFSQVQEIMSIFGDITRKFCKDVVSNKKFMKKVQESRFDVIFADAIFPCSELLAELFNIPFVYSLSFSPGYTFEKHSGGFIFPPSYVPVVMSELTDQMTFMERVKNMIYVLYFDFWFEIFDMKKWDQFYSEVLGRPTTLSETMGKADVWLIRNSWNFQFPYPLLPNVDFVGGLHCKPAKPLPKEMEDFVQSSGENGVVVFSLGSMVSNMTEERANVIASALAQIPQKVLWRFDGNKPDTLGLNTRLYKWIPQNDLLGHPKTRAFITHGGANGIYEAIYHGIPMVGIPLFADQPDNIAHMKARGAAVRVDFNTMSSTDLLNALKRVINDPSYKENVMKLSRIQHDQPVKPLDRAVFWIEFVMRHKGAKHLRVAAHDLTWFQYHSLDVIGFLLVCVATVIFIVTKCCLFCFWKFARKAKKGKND
Assay: Inhibition of UGT2B7 (zidovudine glucuronidation) in human liver microsomes
Format: in vitro ADME
Set-up: tissue Corning Life Sciences 452156; host or cells: pooled human liver microsomes
Protocol: Their IC50 values were compared to that of sauchinone. […] UGT-mediated activities in the presence of sauchinone as an inhibitor were expressed as percentages of corresponding control values (in absence of sauchinone). From percentages of control activity versus inhibitor concentrations, a sigmoid shaped curve was fitted to the data and IC50 as an enzyme inhibition parameter was calculated by fitting the Hill equation to the data using GraphPad Prism 5 (GraphPad Software Inc., San Diego, CA, USA).

**Q.** For `O=C1Nc2ccc(Cl)cc2[C@@](C#CC2CC2)(C(F)(F)F)O1` [Efavirenz], which IC50 is on record?
**A.** 75.4 µM
